Experimental data reported in US20240065271A1, “MIXTURES AND COMPOSITIONS COMPRISING FUSARICIDIN A, FUSARICIDIN B AND FUNGICIDES” (BASF SE, priority 2020, published 2024).

Assays:
Staphylococcus aureus = conditions: clinically relevant fungi and gram-positive bacteria such a Staphylococcus aureus; cited from earlier work
Sclerotinia sclerotiorum = assay: Activity against Sclerotinia sclerotiorum in the microtiterplate test (SCLESC); assay type: cell-based; conditions: single active
Botrytis cinerea = assay: Activity against grey mold Botrytis cinerea in the microtiterplate test (BOTRCI); assay type: cell-based; conditions: single active
Pyricularia oryzae = assay: microbe, parasite or virus in culture; assay type: cell-based; conditions: for Observed efficacy: single active
[1] = test system: Colletotrichum orbiculare; assay: Activity against Colletotrichum orbiculare in the microtiterplate test (COLLLA); assay type: cell-based; conditions: single active
[2] = Pyricularia oryzae, 168 h, read-out: Observed efficacy

For fusaricidin A, the MIC value range (Staphylococcus aureus) is listed as 0.78 to 3.12 µg/mL.

CON=C(C(=O)OC)c1ccccc1CON=C(C)c1cccc(C(F)(F)F)c1 [Trifloxystrobin, trifloxystrobin] showed an Observed efficacy (Sclerotinia sclerotiorum; 0.063 ppm) of 41 and an Observed efficacy (Botrytis cinerea; 0.063 ppm) of 0.

CC(C)[C@H](NC(=O)O)C(=O)N[C@H](C)c1nc2ccc(F)cc2s1 [Benthiavalicarb, benthiavalicarb] showed an Observed efficacy (Pyricularia oryzae; 4 ppm) of 0 and an Observed efficacy (Pyricularia oryzae; 16 ppm) of 8.

For CCCCCCCCc1c(CC)nc2ncnn2c1N [Ametoctradin, ametoctradin], the Observed efficacy (Pyricularia oryzae; 4 ppm) was 12.

Work on O=C(Nc1ccccc1-c1ccc(Cl)cc1)c1cccnc1Cl [Boscalid, boscalid] yielded an inhibition of growth at 1 ppm (Pyricularia oryzae; [2]) of 5%.

COC(=O)CC(NC(=O)[C@@H](NC(=O)OC(C)C)C(C)C)c1ccc(Cl)cc1 (stereo partly shown) [Valifenalat, valifenalate] gave an Observed efficacy (Pyricularia oryzae; 4 ppm) of 1.

In the case of Cc1ccc(C(C)NC(=O)[C@@H](NC(=O)OC(C)C)C(C)C)cc1 (stereo partly shown) [Iprovalicarb, iprovalicarb], the Observed efficacy (Pyricularia oryzae; 1 ppm) is reported as 8 and the Observed efficacy (Pyricularia oryzae; 4 ppm) is reported as 17.

Compound CO/N=C(/C1=NOCCO1)c1ccccc1Oc1ncnc(Oc2ccccc2Cl)c1F [Fluoxastrobin, fluoxastrobin] has an inhibition of growth at 0.016 ppm (Pyricularia oryzae; [2]) of 8%.

mancozeb showed an Observed efficacy (Pyricularia oryzae; 0.25 ppm) of 5.

Compound COc1cc(C)c(C(=O)c2c(OC)ncc(Cl)c2C)c(OC)c1OC [Pyriofenon, pyriofenone] has an Observed efficacy ([1]; 16 ppm) of 20, an Observed efficacy (Pyricularia oryzae; 4 ppm) of 6 and an Observed efficacy (Pyricularia oryzae; 16 ppm) of 18. For the same compound, the Observed efficacy (Botrytis cinerea; 16 ppm) was 12.

Cc1cc(C(F)(F)F)nn1CC(=O)N1CCC(c2nc(C3=NOC(c4c(F)cccc4F)C3)cs2)CC1 (stereo not shown) [Oxathiapiprolin, oxathiapiprolin] gave an Observed efficacy (Botrytis cinerea; 16 ppm) of 11.

metiram gave an Observed efficacy (Pyricularia oryzae; 16 ppm) of 17.

For O=C(NCc1ncc(C(F)(F)F)cc1Cl)c1c(Cl)cccc1Cl [Fluopicolid, fluopicolide], the Observed efficacy (Pyricularia oryzae; 1 ppm) was 2.

For fosetyl-aluminium, the Observed efficacy (Pyricularia oryzae; 4 ppm) was 4.

Compound N#Cc1sc2c(=O)c3ccccc3c(=O)c=2sc1C#N [Dithianon, dithianon] has an Observed efficacy (Sclerotinia sclerotiorum; 1 ppm) of 57 and an Observed efficacy ([1]; 0.063 ppm) of 0.

With CCC(C)(NC(=O)c1cc(Cl)c(C)c(Cl)c1)C(=O)CCl (stereo not shown) [Zoxamid, zoxamide] the Observed efficacy (Sclerotinia sclerotiorum; 1 ppm) was 0, the Observed efficacy ([1]; 1 ppm) was 0 and the inhibition of growth at 4 ppm (Pyricularia oryzae; [2]) was 39%. It also gave an Observed efficacy (Botrytis cinerea; 1 ppm) of 11.

Cc1cccc(-n2nnn(C)c2=O)c1COc1ccn(-c2ccc(Cl)cc2)n1 [Methyltetraprol, metyltetraprole] showed an Observed efficacy ([1]; 0.063 ppm) of 19 and an Observed efficacy (Pyricularia oryzae; 0.016 ppm) of 16.

CCNC(=O)NC(=O)/C(C#N)=N/OC [Cymoxanil, cymoxanil] showed an inhibition of growth at 16 ppm (Pyricularia oryzae; [2]) of 3% and an inhibition of growth at 63 ppm (Pyricularia oryzae; [2]) of 11%.

Cc1ccc(-c2c(Cl)nc(C#N)n2S(=O)(=O)N(C)C)cc1 [Cyazofamid, cyazofamid] showed an inhibition of growth at 0.25 ppm (Pyricularia oryzae; [2]) of 6% and an inhibition of growth at 1 ppm (Pyricularia oryzae; [2]) of 16%.

For C#CCOc1ccc(CCNC(=O)C(OCC#C)c2ccc(Cl)cc2)cc1OC (stereo not shown) [Mandipropamid, mandipropamid], the Observed efficacy (Sclerotinia sclerotiorum; 63 ppm) was 29, the Observed efficacy (Pyricularia oryzae; 16 ppm) was 7 and the Observed efficacy (Botrytis cinerea; 63 ppm) was 16.

Work on O=[N+]([O-])c1cc(C(F)(F)F)c(Cl)c([N+](=O)[O-])c1Nc1ncc(C(F)(F)F)cc1Cl [Fluazinam, fluazinam] yielded an inhibition of growth at 0.063 ppm (Pyricularia oryzae; [2]) of 8%.

Cc1c(Br)c2ccc(F)cc2n1S(=O)(=O)c1ncn(S(=O)(=O)N(C)C)n1 [Amisulbrom, amisulbrom] showed an Observed efficacy (Pyricularia oryzae; 1 ppm) of 3 and an Observed efficacy (Pyricularia oryzae; 4 ppm) of 11.

Compound Cn1cc(C(=O)Nc2ccccc2-c2cc(F)c(F)c(F)c2)c(C(F)F)n1 [Fluxapyroxad, fluxapyroxad] has an Observed efficacy (Pyricularia oryzae; 0.016 ppm) of 3.

For COc1cc(C)c(C(=O)c2c(OC)ccc(Br)c2C)c(OC)c1OC [Metrafenon, metrafenone], the inhibition of growth at 0.25 ppm (Pyricularia oryzae; [2]) was 3%.

With CCCN(CC)CC1COC2(CCC(C(C)(C)C)CC2)O1 (stereo not shown) [Spiroxamin, spiroxamine] the Observed efficacy ([1]; 16 ppm) was 8, the inhibition of growth at 4 ppm (Pyricularia oryzae; [2]) was 3% and the inhibition of growth at 16 ppm (Pyricularia oryzae; [2]) was 17%.
